According to US10759751B2, “Substituted spirocyclohexanes as muscarinic M1 receptor and/or M4 receptor agonists” (Heptares Therapeutics Limited, priority 2016, dated 2020):

Key:
[1] = target: T1, human muscarinic M1 receptor (Homo sapiens, UniProt P11229); test: Alphascreen Surefire phospho-ERK1/2 functional assay, M1; assay type: cell-based; conditions: for selectivity for the M1 receptor relative to the M4 receptor: M1 versus M4, in words; for EC50: phospho-ERK1/2, read-out: pEC50 M1 (converted); for Emax: CHO, read-out: M1 % Emax cf. ACh, CHO cells stably expressing human M1
T1 sequence (P11229 1-460): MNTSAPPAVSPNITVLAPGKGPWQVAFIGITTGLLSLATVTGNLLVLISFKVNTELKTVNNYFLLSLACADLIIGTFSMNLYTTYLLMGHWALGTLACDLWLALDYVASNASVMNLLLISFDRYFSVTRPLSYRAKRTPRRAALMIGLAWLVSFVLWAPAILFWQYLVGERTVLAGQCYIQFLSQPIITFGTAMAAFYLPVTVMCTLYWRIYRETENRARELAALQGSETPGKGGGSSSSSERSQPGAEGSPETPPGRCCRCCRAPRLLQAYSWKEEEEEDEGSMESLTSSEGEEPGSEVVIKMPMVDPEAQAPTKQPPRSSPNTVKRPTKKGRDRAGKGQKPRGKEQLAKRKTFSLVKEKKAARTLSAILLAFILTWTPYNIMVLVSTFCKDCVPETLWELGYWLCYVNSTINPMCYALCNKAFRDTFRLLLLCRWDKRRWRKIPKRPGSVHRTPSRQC
Experimental: (§1) Functional assays were performed using the Alphascreen Surefire phospho-ERK1/2 assay (Crouch & Osmond, Comb. Chem. High Throughput Screen, 2008). ERK1/2 phosphorylation is a downstream consequence of both Gq/11 and Gi/o protein coupled receptor activation, making it highly suitable for the assessment of M1, M3 (Gq/11 coupled) and M2, M4 receptors (Gi/o coupled), rather than using different assay formats for different receptor subtypes. CHO cells stably expressing the human muscarinic M1, M2, M3 or M4 receptor were plated (25K/well) onto 96-well tissue culture plates in MEM-alpha+10% dialysed FBS. Once adhered, cells were serum-starved overnight. Agonist stimulation was performed by the addition of 5 μL agonist to the cells for 5 min (37° C.). Media was removed and 50 μL of lysis buffer added. After 15 min, a 4 μL sample was transferred to 384-well plate and 7 μL of detection mixture added. Plates were incubated for 2 h with gentle agitation in the dark and then read on a PHERAstar plate reader.
(§2) pEC50 and Emax figures were calculated from the resulting data for each receptor subtype.

[2] = target: T2, human muscarinic M4 receptor (Homo sapiens, UniProt P08173); test: Alphascreen Surefire phospho-ERK1/2 functional assay, M4; assay type: cell-based; conditions: for EC50: phospho-ERK1/2, read-out: pEC50 M4 (converted); for Emax: CHO, read-out: M4 % Emax cf. ACh, CHO cells stably expressing human M4
T2 construct: expressed in transfected cells
T2 sequence (P08173 1-479): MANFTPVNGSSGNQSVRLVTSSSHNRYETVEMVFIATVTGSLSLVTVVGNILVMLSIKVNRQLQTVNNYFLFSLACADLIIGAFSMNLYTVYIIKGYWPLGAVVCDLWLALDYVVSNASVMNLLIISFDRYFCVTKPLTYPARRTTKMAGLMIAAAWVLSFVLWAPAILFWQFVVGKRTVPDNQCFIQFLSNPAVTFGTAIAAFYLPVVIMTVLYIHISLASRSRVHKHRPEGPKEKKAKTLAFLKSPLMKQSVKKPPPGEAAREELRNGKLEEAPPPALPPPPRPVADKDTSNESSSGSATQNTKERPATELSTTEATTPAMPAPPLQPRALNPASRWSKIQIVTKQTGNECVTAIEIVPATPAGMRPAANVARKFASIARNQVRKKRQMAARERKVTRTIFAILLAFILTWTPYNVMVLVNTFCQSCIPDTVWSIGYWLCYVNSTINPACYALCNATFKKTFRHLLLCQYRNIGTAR
Experimental: as §1, §2

[3] = CHO cells stably expressing human M1
[4] = CHO cells stably expressing human M4

CCOC(=O)N1CCCN(C2CCC3(CC2)C(=O)Nc2ccc(OC)cc23)CC1 (stereo not shown) [Example 4-12, ethyl 4-(5′-methoxy-2′-oxo-1′,2′-dihydrospiro[cyclohexane-1,3′-indol]-4-yl)-1,4-diazepane-1-carboxylate] was tested, and the “selectivity for the M1 receptor relative to the M4 receptor” value [1] was “highly selective for the M1 receptor relative to the M4 receptor”.

CCOC(=O)N1CCCN(C2CCC3(CC2)C(=O)Nc2ccc(OC)nc23)CC1 (single isomer, unassigned) [4-24 isomer 1] gave an EC50 [1, 3] of 813 nM, an Emax ([1]; Emax relative to ACh) of 75% and an EC50 [2, 4] of 316 nM. For the same compound, the Emax ([2]; Emax relative to ACh) was 61%.

Work on CCOC(=O)N[C@H]1CCN(C2CCC(C#N)(c3ccc(Cl)cn3)CC2)C1 (single isomer, unassigned) [1-15 Isomer 2] yielded an EC50 [1, 3] of 269 nM, an Emax ([1]; Emax relative to ACh) of 39% and an EC50 [2, 4] greater than 20000 nM. For the same compound, the Emax ([2]; Emax relative to ACh) was 7%.

In the case of N#CC1(c2ccc(F)cn2)CCC(N[C@@H]2CC[C@H](c3nc(C(F)(F)F)no3)C2)CC1 (single isomer, unassigned) [28-1 Isomer 2], the EC50 [1, 3] is reported as 977 nM, the Emax ([1]; Emax relative to ACh) is reported as 59% and the EC50 [2, 4] is reported as 832 nM. The Emax ([2]; Emax relative to ACh) was 45%.

With CCOC(=O)N[C@H]1CCN(C2CCC3(CC2)C(=O)N(C(=O)OCC)c2ccccc23)C1 (single isomer, unassigned) [2-14 isomer 2] the EC50 [1, 3] was 117 nM, the Emax ([1]; Emax relative to ACh) was 77% and the EC50 [2, 4] was greater than 20000 nM. For the same compound, the Emax ([2]; Emax relative to ACh) was 56%.

CCOC(=O)N[C@H]1CCN(C2CCC3(CC2)C(=O)Nc2cc(C)ccc23)C1 (single isomer, unassigned) [Example 2-4] was tested, and the “selectivity for the M1 receptor relative to the M4 receptor” value [1] was “highly selective for the M1 receptor relative to the M4 receptor”.

For CCOC(=O)N[C@H]1CCN(C2CCC3(CC2)C(=O)Nc2cc(F)ccc23)C1 (stereo partly drawn) [Example 2-7, ethyl [(3S)-1-(6′-fluoro-2′-oxo-1′,2′-dihydrospiro[cyclohexane-1,3′-indol]-4-yl)pyrrolidin-3-yl]carbamate], the “selectivity for the M1 receptor relative to the M4 receptor” value [1] was “highly selective for the M1 receptor relative to the M4 receptor”.

With CCOC(=O)N[C@H]1CCN(C2CCC(C#N)(c3cccc(F)c3)CC2)C1 (single isomer, unassigned) [Example 1-3] the “selectivity for the M1 receptor relative to the M4 receptor” value [1] was “highly selective for the M1 receptor relative to the M4 receptor”.

CCOC(=O)N[C@@H]1CCN(C2CCC(C#N)(c3cccc(F)c3)CC2)C1 (single isomer, unassigned) [1-6 Isomer 2] was tested, and the EC50 [1, 3] was 229 nM, the Emax ([1]; Emax relative to ACh) was 116% and the EC50 [2, 4] was 1780 nM. The Emax ([2]; Emax relative to ACh) was 49%.

For CCOC(=O)N[C@H]1CCN(C2CCC3(CC2)C(=O)Nc2ncc(Cl)cc23)C1 (single isomer, unassigned) [Example 2-17], the “selectivity for the M1 receptor relative to the M4 receptor” value [1] was “highly selective for the M1 receptor relative to the M4 receptor”.

Cc1noc(C2CC3(CCN(C4CCC(C#N)(c5ccc(F)cn5)CC4)C3)C2)n1 (single isomer, unassigned) [21-3 Isomer 3] was tested, and the “M1 % Emax cf. ACh” value ([1]; CHO cells stably expressing human M1, Emax relative to ACh) was 51%, the EC50 [1, 3] was 562 nM and the “M4 % Emax cf. ACh” value ([2]; CHO cells stably expressing human M4, Emax relative to ACh) was 15%. For the same compound, the EC50 [2, 4] was greater than 20000 nM.

With CCOC(=O)N1CCCN(C2CCC(c3nc(CC)c(C)[nH]3)CC2)CC1 (stereo not shown) [Example 5-1, ethyl 4-[4-(4-ethyl-5-methyl-1H-imidazol-2-yl)cyclohexyl]-1,4-diazepane-1-carboxylate] the “selectivity for the M1 receptor relative to the M4 receptor” value [1] was “highly selective for the M1 receptor relative to the M4 receptor”.

With CCOC(=O)N[C@H]1CCN(C2CCC3(CC2)C(=O)Nc2ccccc23)C1 (single isomer, unassigned) [Example 2-1] the “selectivity for the M1 receptor relative to the M4 receptor” value [1] was “highly selective for the M1 receptor relative to the M4 receptor”.

In the case of C#CCOC(=O)N1CCCN(C2CCC(C#N)(c3ccc(OC)cn3)CC2)CC1 (stereo not shown) [Example 3-31, prop-2-yn-1-yl 4-[4-cyano-4-(5-methoxypyridin-2-yl)cyclohexyl]-1,4-diazepane-1-carboxylate], the “selectivity for the M1 receptor relative to the M4 receptor” value [1] is reported as “highly selective for the M1 receptor relative to the M4 receptor”.

With CCOC(=O)N[C@H]1CCN(C2CCC(C#N)(c3cccc(C)c3)CC2)C1 (single isomer, unassigned) [Example 1-9] the “selectivity for the M1 receptor relative to the M4 receptor” value [1] was “highly selective for the M1 receptor relative to the M4 receptor”.

In the case of CCOC(=O)N1CCCN(C2CCC(C#N)(c3ccc(OCC)cn3)CC2)CC1 (stereo not shown) [Example 3-20, ethyl 4-[4-cyano-4-(5-ethoxypyridin-2-yl)cyclohexyl]-1,4-diazepane-1-carboxylate], the “selectivity for the M1 receptor relative to the M4 receptor” value [1] is reported as “highly selective for the M1 receptor relative to the M4 receptor”.

For CCOC(=O)N1CCCN(C2CCC3(CC2)C(=O)Nc2ccc(C)cc23)CC1 (stereo not shown) [Example 4-7, ethyl 4-(5′-methyl-2′-oxo-1′,2′-dihydrospiro[cyclohexane-1,3′-indol]-4-yl)-1,4-diazepane-1-carboxylate], the “selectivity for the M1 receptor relative to the M4 receptor” value [1] was “highly selective for the M1 receptor relative to the M4 receptor”.

In the case of CC#CCOC(=O)N1CCCN(C2CCC(C#N)(c3ccc(OC)cn3)CC2)CC1 (stereo not shown) [Example 3-32, but-2-yn-1-yl 4-[4-cyano-4-(5-methoxypyridin-2-yl)cyclohexyl]-1,4-diazepane-1-carboxylate], the “selectivity for the M1 receptor relative to the M4 receptor” value [1] is reported as “highly selective for the M1 receptor relative to the M4 receptor”.

CCOC(=O)N1CCCN(C2CCC(C#N)(c3ccc(OC)cn3)CC2)CC1 (stereo not shown) [Example 3-19, ethyl 4-[4-(5-methoxypyridin-2-yl)-4-cyanocyclohexyl]-1,4-diazepane-1-carboxylate] was tested, and the “selectivity for the M1 receptor relative to the M4 receptor” value [1] was “highly selective for the M1 receptor relative to the M4 receptor”.

For CCOC(=O)N[C@H]1CCN(C2CCC3(CC2)C(=O)Nc2ccc(OC)cc23)C1 (single isomer, unassigned) [Example 2-10], the “selectivity for the M1 receptor relative to the M4 receptor” value [1] was “highly selective for the M1 receptor relative to the M4 receptor”.

Compound CCOC(=O)N1CCN(C2CCC(C#N)(c3ccccc3)CC2)CC(O)C1 (mixture of isomers) [3-26 mixture of isomers] has an EC50 [1, 3] of 40.7 nM and an Emax ([1]; Emax relative to ACh) of 85%.

For CCOC(=O)N[C@H]1CCN(C2CCC3(CC2)C(=O)Nc2ccc(F)cc23)C1 (stereo partly drawn) [Example 2-8, ethyl [(3S)-1-(5′-fluoro-2′-oxo-1′,2′-dihydrospiro[cyclohexane-1,3′-indol]-4-yl)pyrrolidin-3-yl]carbamate], the “selectivity for the M1 receptor relative to the M4 receptor” value [1] was “highly selective for the M1 receptor relative to the M4 receptor”.

For CCOC(=O)N[C@H]1CCN(C2CCC(C#N)(c3ccccc3)CC2)C1 (single isomer, unassigned) [Example 1-1], the “selectivity for the M1 receptor relative to the M4 receptor” value [1] was “highly selective for the M1 receptor relative to the M4 receptor”.

CCOC(=O)N[C@H]1CCN(C2CCC3(CC2)C(=O)Nc2c(C)cccc23)C1 (single isomer, unassigned) [Example 2-3] was tested, and the “selectivity for the M1 receptor relative to the M4 receptor” value [1] was “highly selective for the M1 receptor relative to the M4 receptor”.

In the case of CCOC(=O)N[C@H]1CCN(C2CCC(C#N)(c3cccc(Cl)c3)CC2)C1 (single isomer, unassigned) [Example 1-10], the “selectivity for the M1 receptor relative to the M4 receptor” value [1] is reported as “highly selective for the M1 receptor relative to the M4 receptor”.

With CCOC(=O)N[C@H]1CCN(C2CCC(C#N)(c3ccc(F)cc3)CC2)C1 (single isomer, unassigned) [Example 1-4] the “selectivity for the M1 receptor relative to the M4 receptor” value [1] was “highly selective for the M1 receptor relative to the M4 receptor”.

In the case of CCOC(=O)N[C@H]1CCN(C2CCC3(CC2)C(=O)Nc2ccc(C)cc23)C1 (single isomer, unassigned) [Example 2-5], the “selectivity for the M1 receptor relative to the M4 receptor” value [1] is reported as “highly selective for the M1 receptor relative to the M4 receptor”.
